The text below walks through data of patent US8580794B2 (AbbVie Inc., priority 2009, dated 2013).

The term Ki denotes the equilibrium dissociation constant of an inhibitor or competing ligand from its target.

This assay deals with GST-Bc1-2 (Homo sapiens, UniProt P10415). As to the kind of experiment: Time Resolved-Fluorescence Resonance Energy Transfer (TR-FRET) Bcl-2 binding assay with F-Bak peptide probe. The following applies: GST-Bcl-2 1 nM, F-Bak probe 100 nM, Tb-anti-GST 1 nM; '<' = below limit of detection; read-out: TR-FRET Bcl-2 Binding Ki. On the technique in general: Time-resolved FRET reads energy transfer from a long-lived donor to a nearby acceptor.
Sequence of GST-Bc1-2 (P10415 whole entry): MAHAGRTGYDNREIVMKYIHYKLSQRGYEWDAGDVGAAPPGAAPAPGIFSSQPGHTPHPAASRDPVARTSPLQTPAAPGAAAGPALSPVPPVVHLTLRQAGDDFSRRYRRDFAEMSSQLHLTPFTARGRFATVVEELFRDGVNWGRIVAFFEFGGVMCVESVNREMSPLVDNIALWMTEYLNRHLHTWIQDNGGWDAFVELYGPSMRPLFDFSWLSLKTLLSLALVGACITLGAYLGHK

Structures are written as SMILES.

For `CC(C)N1CCC2(CCC(c3ccc(Cl)cc3)=C(CN3CCN(c4ccc(C(=O)NS(=O)(=O)c5ccc(NCC6CCOCC6)c(C(F)(F)F)c5)c(Oc5cnc6[nH]ccc6c5)c4)CC3)C2)CC1` [Example 273, 4-(4-{[9-(4-chlorophenyl)-3-isopropyl-3-azaspiro[5.5]undec-8-en-8-yl]methyl}piperazin-1-yl)-2-(1H-pyrrolo[2,3-b]pyridin-5-yloxy)-N-({4-[(tetrahydro-2H-pyran-4-ylmethyl)amino]-3-(trifluoromethyl)phenyl}sulfonyl)benzamide], the Ki amounted to 0.035 nM.

Turning to `CC1(C)CCC(CN2CCN(c3ccc(C(=O)NS(=O)(=O)c4cnc(O[C@@H]5CCN(C(CF)CF)C5)c(Cl)c4)c(Oc4cnc5[nH]ccc5c4)c3)CC2)=C(c2ccc(Cl)cc2)C1` [Example 274, N-[(5-chloro-6-{[(3R)-1-(1,3-difluoropropan-2-yl)pyrrolidin-3-yl]oxy}pyridin-3-yl)sulfonyl]-4-(4-{[2-(4-chlorophenyl)-4,4-dimethylcyclohex-1-en-1-yl]methyl}piperazin-1-yl)-2-(1H-pyrrolo[2,3-b]pyridin-5-yloxy)benzamide], the inhibition constant Ki was 0.04 nM.

`CC1(C)CCC(CN2CCN(c3ccc(C(=O)NS(=O)(=O)c4ccc(OCCOC5CCOC5)c([N+](=O)[O-])c4)c(Oc4cnc5[nH]ccc5c4)c3)CC2)=C(c2ccc(Cl)cc2)C1` (stereo not drawn) [Example 275, 4-(4-{[2-(4-chlorophenyl)-4,4-dimethylcyclohex-1-en-1-yl]methyl}piperazin-1-yl)-N-({3-nitro-4-[2-(tetrahydrofuran-3-yloxy)ethoxy]phenyl}sulfonyl)-2-(1H-pyrrolo[2,3-b]pyridin-5-yloxy)benzamide]: the Ki was below 0.01 nM.

As to `CC1(C)CCC(CN2CCN(c3ccc(C(=O)NS(=O)(=O)c4ccc(NC[C@H]5CC[C@H](C#N)CC5)c([N+](=O)[O-])c4)c(Oc4cnc5[nH]ccc5c4)c3)CC2)=C(c2ccc(Cl)cc2)C1` [Example 276, 4-(4-{[2-(4-chlorophenyl)-4,4-dimethylcyclohex-1-en-1-yl]methyl}piperazin-1-yl)-N-[(4-{[(trans-4-cyanocyclohexyl)methyl]amino}-3-nitrophenyl)sulfonyl]-2-(1H-pyrrolo[2,3-b]pyridin-5-yloxy)benzamide], the Ki is below 0.01 nM.

Consider `CC1(C)CCC(CN2CCN(c3ccc(C(=O)NS(=O)(=O)c4cnc(OCC5(F)CCN(C6COC6)CC5)c(Cl)c4)c(Oc4cnc5[nH]ccc5c4)c3)CC2)=C(c2ccc(Cl)cc2)C1` [Example 277, N-[(5-chloro-6-{[4-fluoro-1-(oxetan-3-yl)piperidin-4-yl]methoxy}pyridin-3-yl)sulfonyl]-4-(4-{[2-(4-chlorophenyl)-4,4-dimethylcyclohex-1-en-1-yl]methyl}piperazin-1-yl)-2-(1H-pyrrolo[2,3-b]pyridin-5-yloxy)benzamide], for which the inhibition constant (Ki) was below 0.01 nM.

Take `CC1(C)CCC(CN2CCN(c3ccc(C(=O)NS(=O)(=O)c4cnc(OCCC5CCOCC5)c(C#N)c4)c(Oc4cnc5[nH]ccc5c4)c3)CC2)=C(c2ccc(Cl)cc2)C1` [Example 278, 4-(4-{[2-(4-chlorophenyl)-4,4-dimethylcyclohex-1-en-1-yl]methyl}piperazin-1-yl)-N-({5-cyano-6-[2-(tetrahydro-2H-pyran-4-yl)ethoxy]pyridin-3-yl}sulfonyl)-2-(1H-pyrrolo[2,3-b]pyridin-5-yloxy)benzamide]: the Ki worked out at 0.252 nM.

In the case of `CC1(C)CCC(CN2CCN(c3ccc(C(=O)NS(=O)(=O)c4ccc(OCc5ccoc5)c([N+](=O)[O-])c4)c(Oc4cnc5[nH]ccc5c4)c3)CC2)=C(c2ccc(Cl)cc2)C1` [Example 279, 4-(4-{[2-(4-chlorophenyl)-4,4-dimethylcyclohex-1-en-1-yl]methyl}piperazin-1-yl)-N-{[4-(3-furylmethoxy)-3-nitrophenyl]sulfonyl}-2-(1H-pyrrolo[2,3-b]pyridin-5-yloxy)benzamide], the Ki was found to be 0.035 nM.

With `CC1(C)CCC(CN2CCN(c3ccc(C(=O)NS(=O)(=O)c4cnc(OC[C@@H]5CCN(C(CF)CF)C5)c(Cl)c4)c(Oc4cnc5[nH]ccc5c4)c3)CC2)=C(c2ccc(Cl)cc2)C1` [Example 280, N-[(5-chloro-6-{[(3R)-1-(1,3-difluoropropan-2-yl)pyrrolidin-3-yl]methoxy}pyridin-3-yl)sulfonyl]-4-(4-{[2-(4-chlorophenyl)-4,4-dimethylcyclohex-1-en-1-yl]methyl}piperazin-1-yl)-2-(1H-pyrrolo[2,3-b]pyridin-5-yloxy)benzamide], the Ki amounted to 0.071 nM.

With `CC1(C)CCC(CN2CCN(c3ccc(C(=O)NS(=O)(=O)c4cnc(OC[C@@H]5CCN(CC(F)F)C5)c(Cl)c4)c(Oc4cnc5[nH]ccc5c4)c3)CC2)=C(c2ccc(Cl)cc2)C1` [Example 281, N-[(5-chloro-6-{[(3R)-1-(2,2-difluoroethyl)pyrrolidin-3-yl]methoxy}pyridin-3-yl)sulfonyl]-4-(4-{[2-(4-chlorophenyl)-4,4-dimethylcyclohex-1-en-1-yl]methyl}piperazin-1-yl)-2-(1H-pyrrolo[2,3-b]pyridin-5-yloxy)benzamide], the Ki is 0.145 nM.

For `CC1(C)CCC(CN2CCN(c3ccc(C(=O)NS(=O)(=O)c4cnc(OCC5(F)CCN(C(CF)CF)CC5)c(Cl)c4)c(Oc4cnc5[nH]ccc5c4)c3)CC2)=C(c2ccc(Cl)cc2)C1` [Example 282, N-[(5-chloro-6-{[1-(1,3-difluoropropan-2-yl)-4-fluoropiperidin-4-yl]methoxy}pyridin-3-yl)sulfonyl]-4-(4-{[2-(4-chlorophenyl)-4,4-dimethylcyclohex-1-en-1-yl]methyl}piperazin-1-yl)-2-(1H-pyrrolo[2,3-b]pyridin-5-yloxy)benzamide], the Ki was below 0.01 nM.

As to `CN1CCC(F)(COc2ccc(S(=O)(=O)NC(=O)c3ccc(N4CCN(CC5=C(c6ccc(Cl)cc6)CC(C)(C)CC5)CC4)cc3Oc3cnc4[nH]ccc4c3)cc2Cl)CC1` [Example 283, N-({3-chloro-4-[(4-fluoro-1-methylpiperidin-4-yl)methoxy]phenyl}sulfonyl)-4-(4-{[2-(4-chlorophenyl)-4,4-dimethylcyclohex-1-en-1-yl]methyl}piperazin-1-yl)-2-(1H-pyrrolo[2,3-b]pyridin-5-yloxy)benzamide], the Ki was below 0.01 nM.

For the compound `CC1(C)CCC(CN2CCN(c3ccc(C(=O)NS(=O)(=O)c4ccc(OCC5CCOCC5)c(C#N)c4)c(Oc4cnc5[nH]ccc5c4)c3)CC2)=C(c2ccc(Cl)cc2)C1` [Example 284, 4-(4-{[2-(4-chlorophenyl)-4,4-dimethylcyclohex-1-en-1-yl]methyl}piperazin-1-yl)-N-{[3-cyano-4-(tetrahydro-2H-pyran-4-ylmethoxy)phenyl]sulfonyl}-2-(1H-pyrrolo[2,3-b]pyridin-5-yloxy)benzamide], the Ki was found to be 0.024 nM.

For `CC1(C)CCC(CN2CCN(c3ccc(C(=O)NS(=O)(=O)c4cnc(OCC5(F)CCN(CC(F)F)CC5)c(Cl)c4)c(Oc4cnc5[nH]ccc5c4)c3)CC2)=C(c2ccc(Cl)cc2)C1` [Example 285, N-[(5-chloro-6-{[1-(2,2-difluoroethyl)-4-fluoropiperidin-4-yl]methoxy}pyridin-3-yl)sulfonyl]-4-(4-{[2-(4-chlorophenyl)-4,4-dimethylcyclohex-1-en-1-yl]methyl}piperazin-1-yl)-2-(1H-pyrrolo[2,3-b]pyridin-5-yloxy)benzamide], the Ki was below 0.01 nM.

Regarding `CC1(C)CCC(CN2CCN(c3ccc(C(=O)NS(=O)(=O)c4ccc(OCC5(F)CCOCC5)c(Cl)c4)c(Oc4cnc5[nH]ccc5c4)c3)CC2)=C(c2ccc(Cl)cc2)C1` [Example 286, N-({3-chloro-4-[(4-fluorotetrahydro-2H-pyran-4-yl)methoxy]phenyl}sulfonyl)-4-(4-{[2-(4-chlorophenyl)-4,4-dimethylcyclohex-1-en-1-yl]methyl}piperazin-1-yl)-2-(1H-pyrrolo[2,3-b]pyridin-5-yloxy)benzamide], the Ki is below 0.01 nM.

Take `CC1(C)CCC(CN2CCN(c3ccc(C(=O)NS(=O)(=O)c4cnc(OCC5CCC(F)(F)CC5)c(Cl)c4)c(Oc4cnc5[nH]ccc5c4)c3)CC2)=C(c2ccc(Cl)cc2)C1` [Example 287, N-({5-chloro-6-[(4,4-difluorocyclohexyl)methoxy]pyridin-3-yl}sulfonyl)-4-(4-{[2-(4-chlorophenyl)-4,4-dimethylcyclohex-1-en-1-yl]methyl}piperazin-1-yl)-2-(1H-pyrrolo[2,3-b]pyridin-5-yloxy)benzamide]: the Ki was found to be 0.081 nM.

As to `CC1(C)CCC(CN2CCN(c3ccc(C(=O)NS(=O)(=O)c4cnc(OCC5(F)CCN(C(CF)CF)CC5)c(C(F)(F)F)c4)c(Oc4cnc5[nH]ccc5c4)c3)CC2)=C(c2ccc(Cl)cc2)C1` [Example 288, 4-(4-{[2-(4-chlorophenyl)-4,4-dimethylcyclohex-1-en-1-yl]methyl}piperazin-1-yl)-N-{[6-{[1-(1,3-difluoropropan-2-yl)-4-fluoropiperidin-4-yl]methoxy}-5-(trifluoromethyl)pyridin-3-yl]sulfonyl}-2-(1H-pyrrolo[2,3-b]pyridin-5-yloxy)benzamide], the Ki is 0.251 nM.

`CC1(C)CCC(CN2CCN(c3ccc(C(=O)NS(=O)(=O)c4cnc(OCCC5CCCO5)c(Cl)c4)c(Oc4cnc5[nH]ccc5c4)c3)CC2)=C(c2ccc(Cl)cc2)C1` (stereo not drawn) [Example 289, 4-(4-{[2-(4-chlorophenyl)-4,4-dimethylcyclohex-1-en-1-yl]methyl}piperazin-1-yl)-N-({5-chloro-6-[2-(tetrahydrofuran-2-yl)ethoxy]pyridin-3-yl}sulfonyl)-2-(1H-pyrrolo[2,3-b]pyridin-5-yloxy)benzamide]: the inhibition constant Ki is 0.09 nM.

In the case of `CC1CN(c2ccc(C(=O)NS(=O)(=O)c3ccc(NCC4CCOCC4)c([N+](=O)[O-])c3)c(Oc3cnc4[nH]ccc4c3)c2)CCN1CC1=C(c2ccc(Cl)cc2)CC(C)(C)CC1` (stereo not drawn) [Example 290, 4-(4-{[2-(4-chlorophenyl)-4,4-dimethylcyclohex-1-en-1-yl]methyl}-3-methylpiperazin-1-yl)-N-({3-nitro-4-[(tetrahydro-2H-pyran-4-ylmethyl)amino]phenyl}sulfonyl)-2-(1H-pyrrolo[2,3-b]pyridin-5-yloxy)benzamide], the inhibitory constant (Ki) was below 0.01 nM.
